The supplement of paper PMC10307832

What was measured:
Metformin = compound: CN(C)C(=N)NC(=N)N [Metformin]; assay: relative viability (nuclei count vs DMSO), 5 days (fraction); higher = more cells survive
Summary of the method: (§1)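 Lung cancer cell lines were seeded into 1536-well plates, kept overnight at 37 °C and pinned with five library-drug doses (not always all listed) spaced by √10. After 5 days, nuclei were Hoechst-stained, imaged at 4× and counted with MetaXpress. Viability is treated-well nuclei over vehicle-well nuclei, taken as a median across plates. Plates needed control CV below 25% and at least one doubling.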

Apatinib = compound: N#CC1(c2ccc(NC(=O)c3cccnc3NCc3ccncc3)cc2)CCCC1 [Apatinib]; assay: as above
Summary of the method: as §1

Cell Line | relative viability (Metformin; 10 µM) | relative viability (Metformin; 31.62 µM) | relative viability (Metformin; 100 µM) | relative viability (Metformin; 316.23 µM) | relative viability (Metformin; 1000 µM) | relative viability (Apatinib; 0.08 µM) | relative viability (Apatinib; 0.253 µM) | relative viability (Apatinib; 0.8 µM) | relative viability (Apatinib; 2.53 µM) | relative viability (Apatinib; 8 µM)
NCI-H647 | 0.978 | 1.05 | 1.05 | 0.813 | 0.939 | 1.05 | 1.07 | 0.993 | 0.837 | 0.852
NCI-H661 | 0.801 | 0.964 | 0.911 | 0.875 | 0.893 | 0.973 | 0.908 | 0.973 | 0.929 | 0.948
HCC-366 | 0.926 | 1.06 | 1.02 | 0.964 | 1.03 | 1.03 | 1 | 1.02 | 0.97 | 0.988
HOP-62 | 0.856 | 1.02 | 1.02 | 0.917 | 1.03 | 0.964 | 0.924 | 0.985 | 0.859 | 0.922
A549 | 0.896 | 0.976 | 0.923 | 0.849 | 0.996 | 1.02 | 1.04 | 1.02 | 0.903 | 0.909
HCC-827 |  | 0.988 | 0.993 | 0.967 | 0.997 | 1.02 | 1.02 | 0.96 | 0.976 | 1.02
NCI-H1395 | 1.06 | 1.3 | 0.96 | 0.956 | 0.521 | 0.914 | 1.11 | 0.964 | 0.685 | 0.844
SK-MES-1 | 0.9 | 0.875 | 0.952 | 0.826 | 0.884 | 1.02 | 1.06 | 0.978 | 0.933 | 0.884
NCI-H2023 | 0.782 | 1.13 | 0.921 | 0.853 | 0.769 | 1.01 | 0.94 | 0.974 | 0.881 | 0.883
NCI-H1299 | 1.07 | 1.04 | 1.07 | 1.01 | 1.03 | 1.04 | 1 | 1 | 0.931 | 0.917
LCLC-97TM1 | 0.725 | 0.978 | 0.988 | 0.843 | 1.25 | 0.792 | 0.882 | 1.02 | 0.785 | 0.662
NCI-H1993 | 1.03 | 0.892 | 1 | 0.872 | 1.07 | 1.01 | 0.923 | 0.889 | 0.833 | 0.869
PC-3 [JPC-3] | 0.898 | 0.986 | 1.01 | 0.987 | 1.02 | 1.06 | 0.983 | 0.915 | 0.955 | 0.985
NCI-H441 |  | 0.761 | 0.985 | 0.667 | 0.944 | 1.08 | 1.05 | 0.837 | 0.864 | 0.743
NCI-H322M | 0.974 | 0.922 | 0.939 | 0.951 | 0.855 | 0.964 | 0.861 | 0.894 | 0.975 | 1.07
NCI-H1651 | 1.08 | 1.17 | 1.12 | 1.11 | 1.11 | 0.988 | 0.984 | 0.986 | 0.939 | 0.871
EKVX | 0.756 | 0.95 | 1.07 | 0.922 | 1.03 | 0.869 | 0.904 | 0.984 | 0.873 | 0.877

Cell Line | relative viability (Metformin; 10 µM) | relative viability (Metformin; 31.62 µM) | relative viability (Metformin; 100 µM) | relative viability (Metformin; 316.23 µM) | relative viability (Metformin; 1000 µM) | relative viability (Apatinib; 0.08 µM) | relative viability (Apatinib; 0.253 µM) | relative viability (Apatinib; 0.8 µM) | relative viability (Apatinib; 2.53 µM) | relative viability (Apatinib; 8 µM)
CAL-12T | 1.02 | 1.19 | 0.938 | 1.02 | 0.968 | 1.08 | 0.99 | 1 | 0.91 | 0.828
NCI-H358 | 0.939 | 1.09 | 1.03 | 0.98 | 1.09 | 0.987 | 1.03 | 0.962 | 0.961 | 0.877
PC-14 | 1.01 | 1.09 | 0.997 | 0.971 | 0.944 | 1.03 | 1.05 | 0.829 | 0.968 | 0.956
NCI-H650 | 1.02 | 1.1 | 0.816 | 0.953 | 1.07 | 0.979 | 0.927 | 1 | 0.745 | 0.763
NCI-H2405 | 0.756 | 1.04 | 0.91 | 0.971 | 0.931 | 0.954 | 1.04 | 1.07 | 0.909 | 0.955
NCI-H2228 | 0.913 | 1.08 | 0.803 | 0.907 | 1.22 | 1.13 | 1.08 | 0.993 | 0.867 | 0.846
H3255 | 0.839 | 1.09 | 0.967 | 0.909 | 0.841 | 0.979 | 0.935 | 0.964 | 0.859 | 0.916
EBC-1 | 1.18 | 1.19 | 1.07 | 0.918 | 1.04 | 1 | 1.06 | 0.914 | 0.858 | 0.738
NCI-H520 | 1.08 | 0.928 | 1.18 | 0.889 | 1.03 | 1.11 | 0.945 | 1.01 | 0.813 | 0.81
SK-LU-1 | 0.997 | 0.976 | 0.967 | 0.901 | 1.01 | 1.09 | 1.08 | 0.992 | 0.949 | 0.931
NCI-H1648 | 0.937 | 1.11 | 1.28 | 1.08 | 1.16 | 1.18 | 0.735 | 0.722 | 0.591 | 0.498
NCI-H1755 | 0.807 | 0.891 | 0.864 | 0.853 | 0.897 | 1.02 | 1 | 1 | 1.06 | 0.951
EPLC-272H | 0.9 | 1.16 | 0.923 | 0.935 | 1.09 | 1.01 | 1.02 | 0.914 | 0.774 | 0.691
NCI-H522 | 1.24 | 1.09 | 1.05 | 0.942 | 1.11 | 1 | 1.04 | 1.1 | 0.916 | 0.928
NCI-H23 | 0.919 | 1.17 | 0.969 | 0.997 | 1.13 | 1.08 | 0.977 | 0.912 | 0.937 | 0.88
LCLC-103H | 0.848 | 1.01 | 1.07 | 1.01 | 1.02 | 0.998 | 0.956 | 0.956 | 0.912 | 0.942
NCI-H1650 | 1.09 | 0.865 | 1.17 | 1.03 | 0.931 | 0.904 | 1.01 | 0.86 | 0.832 | 0.824
